In US20110015119A1, “NOVEL SEMI-SYNTHETIC GLYCOPEPTIDES AS ANTIBACTERIAL AGENTS” (LEAD THERAPEUTICS, INC., priority 2009, published 2011) one finds MIC data, which are given here for three molecules.

By MIC is commonly meant the smallest concentration in the dilution series that meets the test's criterion for growth inhibition.

Type in all cases: cell-based
Assay [1] concerns Staphylococcus aureus 100 (ATCC 29213). Kind of assay: MIC by broth microdilution, SA 100. A digest of the protocol:
(§1)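 Clinical isolates, glycopeptide-sensitive or -resistant, were tested in Mueller-Hinton broth. MICs came from the CLSI-recommended serial broth microdilution procedure.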
(In general: Dilution methods test growth across graded concentrations, often in twofold steps.)

For assay [2], the system named is Staphylococcus aureus 757 (MRSA). Kind of assay: MIC by broth microdilution, SA 757. Conditions: read-out: MIC SA 757. A digest of the protocol:
as §1

The subject of assay [3] is Staphylococcus aureus 2012 (VISA). Kind of assay: MIC by broth microdilution, SA 2012. The note with it: class symbols. Summed up: as §1
Assay [4] concerns Staphylococcus epidermidis 835. Kind of assay: MIC by broth microdilution, SE 835. A digest of the protocol: as §1
Assay [5] concerns Staphylococcus epidermidis 831 (MRSE). Kind of assay: MIC by broth microdilution, SE 831. The note with it: read-out: MIC SE 831. A digest of the protocol: as §1
Assay [6] concerns Enterococcus faecalis 101 (ATCC 29212). Kind of assay: MIC by broth microdilution, EFc 101. The note with it: class symbols. A digest of the protocol:
as §1

Assay [7] relates to Enterococcus faecalis 848 (VRE, Van A). Kind of assay: MIC by broth microdilution, EFc 848. The note with it: class symbols. A digest of the protocol: as §1
Assay [8] concerns Enterococcus faecium 800. Kind of assay: MIC by broth microdilution, EFcm 800. A digest of the protocol:
as §1

In assay [9] the test system is Enterococcus faecium 752 (VRE, Van A). Kind of assay: MIC by broth microdilution, EFcm 752. Conditions: class symbols. A digest of the protocol: as §1
Assay [10] concerns Streptococcus pneumoniae 1195 (ATCC 49619). Kind of assay: MIC by broth microdilution, SPNE 1195. A digest of the protocol:
as §1

For assay [11], the system named is Streptococcus pyogenes 712. Kind of assay: MIC by broth microdilution, SPY 712. A digest of the protocol: as §1
The mark [12] stands for this setting: Staphylococcus aureus, ATCC29213, read-out: MIC SA 100.
Setting [13] is: Staphylococcus aureus, VISA, read-out: MIC SA 2012, Staphylococcus aureus 2012 (VISA).
Where [14] appears, read: Staphylococcus epidermidis, 835, read-out: MIC SE 835.
[15] abbreviates: Staphylococcus epidermidis, MRSE.
The mark [16] stands for this setting: Enterococcus faecalis, ATCC29212, read-out: MIC E FC 101, Enterococcus faecalis 101 (ATCC 29212).
[17] abbreviates: Enterococcus faecalis, VRE, read-out: MIC E FC 848, Enterococcus faecalis 848 (VRE, Van A).
Where [18] appears, read: Enterococcus faecium, 800, read-out: MIC E FCM 800.
The mark [19] stands for this setting: Enterococcus faecium, VRE, read-out: MIC E FCM 752, Enterococcus faecium 752 (VRE, Van A).
The mark [20] stands for this setting: Streptococcus pneumoniae, ATCC49619, read-out: MIC S PNE 1195.
Where [21] appears, read: Streptococcus pyogenes, 712, read-out: MIC S PYO 712.

Converted amounts (≈) assume the structure as drawn. Like-named read-outs stand apart in the source and are kept apart here.

For `CCCCOc1ccc(CCNC(=O)Oc2cc(O)c3c(c2)[C@@H](C(=O)O)NC(=O)[C@H]2NC(=O)[C@H](NC(=O)[C@@H]4NC(=O)[C@H](CC(N)=O)NC(=O)[C@H](NC(=O)[C@@H](CC(C)C)NC)[C@H](O)c5ccc(c(Cl)c5)Oc5cc4cc(c5O[C@@H]4O[C@H](CO)[C@@H](O)[C@H](O)[C@H]4O[C@H]4C[C@](C)(N)[C@H](O)[C@H](C)O4)Oc4ccc(cc4Cl)[C@H]2O)c2ccc(O)c-3c2)cc1` (atropisomer, axis not shown) [Compound 351], the MIC in [1] (setting [12]) lay in the range of 0.01 to 0.5 µg/mL (≈ 0.00599 to 0.3 µM); in assay [2] (Staphylococcus aureus, MRSA) it was 0.01 to 0.5 µg/mL (≈ 0.00599 to 0.3 µM); in [3] (setting [13]), 4 to 8 µg/mL (≈ 2.4 to 4.79 µM); in assay [4] (setting [14]) it was 0.5 to 1 µg/mL (≈ 0.3 to 0.599 µM); in [5] (setting [15]) it was 0.5 to 1 µg/mL (≈ 0.3 to 0.599 µM); in [6] (setting [16]), 0.5 to 1 µg/mL (≈ 0.3 to 0.599 µM). Moreover, the MIC in assay [7] (setting [17]) was above 16 µg/mL; in [8] (setting [18]) it was 0.01 to 0.5 µg/mL (≈ 0.00599 to 0.3 µM); in [9] (setting [19]), 8 to 16 µg/mL (≈ 4.79 to 9.59 µM); in [10] (setting [20]), 0.01 to 0.5 µg/mL (≈ 0.00599 to 0.3 µM); in [11] (setting [21]) it was 0.01 to 0.5 µg/mL (≈ 0.00599 to 0.3 µM).

For the molecule `CCCCCCc1ccc(S(=O)(=O)NCCCCCCNCc2c(O)cc3c(c2O)-c2cc(ccc2O)[C@H]2NC(=O)[C@@H]4NC(=O)[C@H](CC(N)=O)NC(=O)[C@H](NC(=O)[C@@H](CC(C)C)NC)[C@H](O)c5ccc(c(Cl)c5)Oc5cc4cc(c5O[C@@H]4O[C@H](CO)[C@@H](O)[C@H](O)[C@H]4O[C@H]4C[C@](C)(NC(=O)CN)[C@H](O)[C@H](C)O4)Oc4ccc(cc4Cl)[C@@H](O)[C@H](NC2=O)C(=O)N[C@@H]3C(=O)O)cc1` (atropisomer, axis not shown) [Compound 362], the MIC in assay [1] (ATCC29213, Staphylococcus aureus 100 (ATCC 29213), class symbols, read-out: MIC SA 100) was in the range of 0.01 to 0.5 µg/mL (≈ 0.00538 to 0.269 µM); in assay [2] (Staphylococcus aureus 757 (MRSA), class symbols) it was 0.01 to 0.5 µg/mL (≈ 0.00538 to 0.269 µM); in [3] (Staphylococcus aureus 2012 (VISA), read-out: MIC SA 2012) it was 0.01 to 0.5 µg/mL (≈ 0.00538 to 0.269 µM); in [4] (Staphylococcus epidermidis 835, class symbols, read-out: MIC SE 835) it was 0.01 to 0.5 µg/mL (≈ 0.00538 to 0.269 µM); in [5] (Staphylococcus epidermidis 831 (MRSE), class symbols) it was 0.01 to 0.5 µg/mL (≈ 0.00538 to 0.269 µM); in assay [6] (ATCC29212, Enterococcus faecalis 101 (ATCC 29212), read-out: MIC E FC 101), 0.01 to 0.5 µg/mL (≈ 0.00538 to 0.269 µM). Moreover, the MIC in assay [7] (Enterococcus faecalis 848 (VRE, Van A), read-out: MIC E FC 848) fell in the range of 8 to 16 µg/mL (≈ 4.3 to 8.61 µM); in [8] (Enterococcus faecium 800, class symbols, read-out: MIC E FCM 800), 0.01 to 0.5 µg/mL (≈ 0.00538 to 0.269 µM); in assay [9] (Enterococcus faecium 752 (VRE, Van A), read-out: MIC E FCM 752), 2 to 4 µg/mL (≈ 1.08 to 2.15 µM); in assay [10] (ATCC49619, Streptococcus pneumoniae 1195 (ATCC 49619), class symbols, read-out: MIC S PNE 1195), 0.01 to 0.5 µg/mL (≈ 0.00538 to 0.269 µM); in assay [11] (Streptococcus pyogenes 712, class symbols, read-out: MIC S PYO 712), 0.01 to 0.5 µg/mL (≈ 0.00538 to 0.269 µM).

For the molecule `CCOc1ccc(NC(=O)Oc2cc(O)c3c(c2)[C@@H](C(=O)NC2C4CC5CC(C4)CC2C5)NC(=O)[C@H]2NC(=O)[C@H](NC(=O)[C@@H]4NC(=O)[C@H](CC(N)=O)NC(=O)[C@H](NC(=O)[C@@H](CC(C)C)NC)[C@H](O)c5ccc(c(Cl)c5)Oc5cc4cc(c5O[C@@H]4O[C@H](CO)[C@@H](O)[C@H](O)[C@H]4O[C@H]4C[C@](C)(N)[C@H](O)[C@H](C)O4)Oc4ccc(cc4Cl)[C@H]2O)c2ccc(O)c-3c2)cc1` (stereo partly drawn) [Compound 330], the MIC in assay [1] (setting [12]) was in the range of 0.5 to 1 µg/mL (≈ 0.286 to 0.573 µM); in assay [2] (Staphylococcus aureus, MRSA) it was 0.5 to 1 µg/mL (≈ 0.286 to 0.573 µM); in assay [3] (setting [13]), 4 to 8 µg/mL (≈ 2.29 to 4.58 µM); in assay [4] (setting [14]) it was 1 to 2 µg/mL (≈ 0.573 to 1.15 µM); in [5] (setting [15]), 1 to 2 µg/mL (≈ 0.573 to 1.15 µM); in [6] (setting [16]) it was 1 to 2 µg/mL (≈ 0.573 to 1.15 µM). In addition, the MIC is above 16 µg/mL in assay [7] (setting [17]); 0.01 to 0.5 µg/mL (≈ 0.00573 to 0.286 µM) in assay [8] (setting [18]); above 16 µg/mL in assay [9] (setting [19]); 0.01 to 0.5 µg/mL (≈ 0.00573 to 0.286 µM) in [10] (setting [20]); 0.01 to 0.5 µg/mL (≈ 0.00573 to 0.286 µM) in assay [11] (setting [21]).
